Test results from US5859030A, “Substituted arylalkylthioalkylthiopyridines for use in the control of helicobacter bacteria” (BYK Gulden Lomberg Chemische Fabrik GmbH, priority 1994, dated 1999).
≈ marks a conversion by molar mass, not a printed value. Structures can show the parent of a compound that is named as a salt.

The molecules below were run on Helicobacter pylori (assay: Activity against Helicobacter pylori (agar growth inhibition, methodology of Iwahi et al.)). Settings: 96 h, Columbia agar (Oxoid), growth period of 4 days, read-out: approx. MIC50.
Type: cell-based
Excerpt: The compounds of the formula I were investigated regarding their activity against Helicobacter pylori following the methodology described by Tomoyuki Iwahi et al. (Antimicrobial Agents and Chemotherapy, 1991, 490-496) using Columbia agar (Oxoid) and with a growth period of 4 days. The approx. MIC 50 values listed in the following Table A resulted here for the compounds investigated (the numbers of the compounds given agree with the example numbers in the description).

**Q.** With `Cc1c(SCCOc2ccccc2)ccnc1CSc1nc2ccccc2[nH]1` [Compound 1] as the molecule, how does the MIC50 read?
**A.** ~0.05 mg/L (≈ 0.123 µM)

**Q.** With `Cc1c(SCCCCOc2ccccc2)ccnc1CSc1nc2ccccc2[nH]1` [Compound 2] as the molecule, how does the MIC50 read?
**A.** ~0.1 mg/L (≈ 0.23 µM)

**Q.** `Cc1ccc(CSCCSc2ccnc(CSc3nc4ccccc4[nH]3)c2C)cc1` [Compound 3, 2-{[[3-Methyl-4-[5-(4-methylphenyl)-1,4-dithia-pent-1-yl]-2-pvridinyl]methyl]thio}-1 H-benzimidazole] was tested. Which MIC50 did it give?
**A.** ~0.05 mg/L (≈ 0.111 µM)

**Q.** Which MIC50 does the source give for `Cc1c(SCCCSC(=S)N(C)C)ccnc1CSc1nc2ccccc2[nH]1` [Compound 4, 2-{[[4-[3-Dimethvldithiocarbamoylpropylthio]-3-methyl-2-pyridinyl]methyl]thio}1 H-benzimidazole] here?
**A.** ~0.05 mg/L (≈ 0.111 µM)

**Q.** With `Cc1c(SCCCSCc2ccco2)ccnc1CSc1nc2ccccc2[nH]1` [Compound 5, 2-{[[4-[(6-Furan-2-yl)-1,5-dithiahex-1-yl]-3-methyl-2-pyridinyl]methyl]thio}-1 H-benzimidazole] as the molecule, how does the MIC50 read?
**A.** ~0.05 mg/L (≈ 0.113 µM)

**Q.** How did the MIC50 turn out when `Cc1c(SCCCSCc2ccc(CN(C)C)o2)ccnc1CSc1nc2ccccc2[nH]1` [Compound 6, trihydrochloride] was run?
**A.** ~0.05 mg/L

**Q.** How did the MIC50 turn out when `Cc1scnc1CCSCCCSc1ccnc(CSc2nc3ccccc3[nH]2)c1C.Cl.Cl.Cl` [Compound 7, 2-{[[3-Methyl-4-[7-(5-methylthiazol-4-yl)-1,5 dithiahept-1-yl]-2-pyridinyl]methyl]thio}-1 H-benzimidazole trihydrochloride] was run?
**A.** ~0.05 mg/L

**Q.** Which MIC50 does the source give for `Cc1c(SCCCSc2nc3ccccc3s2)ccnc1CSc1nc2ccccc2[nH]1` [Compound 10, 2-{[[4-[(5-Benzothiazol-2-yl)-1,5-dithiapent-1-yl]-3-methyl-2-pyridinyl]methyl]thio}-1 H-benzimidazole] here?
**A.** ~0.1 mg/L (≈ 0.202 µM)

**Q.** How did the MIC50 turn out when `Cc1c(SCCCSc2nc3ccccc3o2)ccnc1CSc1nc2ccccc2[nH]1` [Compound 11, 2-{[[4-[(5-Benzoxazol-2-yl)-1,5-dithiapent-1-yl]-3-methyl-2-pyridinyl]methyl]thio}1 H-benzimidazole] was run?
**A.** ~0.1 mg/L (≈ 0.209 µM)

**Q.** `Cc1c(SCCCSc2ccncc2)ccnc1CSc1nc2cccnc2[nH]1` [Compound 14] was tested. Which MIC50 did it give?
**A.** ~0.1 mg/L (≈ 0.227 µM)
